{
  "source": "patent US7880021B2",
  "about": "“Compounds and kits for the detection and the quantification of cell apoptosis” (Centre National de la Recherche Scientifique (CNRS), priority 2005, dated 2011)",
  "key": {"T lymphocytes": {"system": "T lymphocytes", "experiment": "Laser scanning confocal ratiometric imaging of T lymphocytes", "format": "cell-based", "experimental": "FIG. 9: Laser scanning confocal imaging of T lymphocytes stained with annexin V-FITC (a) and F2N12S (b and c). Combination of transmission and fluorescence images of cells treated with actinomycin D for 18 hours (please complete this sentence). […] Due to their low binding to annexin V, normal cells are not visualized in the fluorescence images. (b and c) Ratiometric images of normal (b) and actinomycin D-treated (c) cells stained with 0.2 μM F2N12S. […] The size of the images is 60×73.1 μm.\nFIG. 10: Time-series of confocal fluorescence ratiometric images of actinomycin D-treated T lymphocytes stained with F2N12S. The cells were treated with actinomycin D for 18 hours and then, incubated with the probe (0.2 μM) for 5 min. Images were recorded at 1 min (a), 10 min (b) and 20 min (c) post incubation. […] The size of the images is 60×73.1 μm.\n(§1) For collecting cell images, a Laser Scanning Confocal Imaging System MRC-1024 (Bio-Rad) was used. Cells in chambered cover glass were prepared by following the preparation procedure described above. The 442 nm line of a HeCd laser was used as the excitation light source. Emission was collected by using two filters: 485/30 for the N* band and 585LP for the T* band. Collected images were analyzed by the Amira 3.0 software.\nTo further compare F2N12S and annexinV-derived probes, two-color ratiometric images of F2N12S-labeled cells undergoing apoptosis were recorded by laser scanning confocal microscopy and compared with intensity based images obtained using annexin V-FITC. […] Moreover, the fluorescence intensity of apoptotic cells varies considerably from cell to cell. These differences are difficult to interpret since the intensity depends on the probe concentration as well as on the size and confluence of the cells. […] According to our spectroscopy and flow cytometry data, the latter cells are apoptotic. […] Thus, unlike annexin V-FITC, these probes provide an absolute parameter, the intensity ratio, which can be calibrated, and can characterize the level of apoptosis independently of the probe/cell concentration and the excitation light intensity. In addition, the inventors have observed that in normal cells and cells on the initial steps of apoptosis, the T*/N* intensity ratio is not evenly distributed within the plasma membrane of a given cell. This may indicate an inhomogeneous lipid composition of their plasma membranes that is likely related to the presence of lipid domains.\nThe inventors also follow apoptotic transformation of the plasma membrane as a function of time. Normal and actinomycin D-treated cells were stained with the corresponding probe and the fluorescence images were subsequently recorded during 20 min. […]"}, "[1]": {"system": "human lymphoid cell line CEM T", "experiment": "Toxicity test by flow cytometry using PI", "format": "cell-based", "settings": "1 μM F2N12S; 0.5, 1 and 4 hours incubation", "experimental": "The toxicity of the F2N12S molecules was tested by flow cytometry using PI (19 μM). Cells were washed twice as described above and separated in nine batches: three batches for control measurements, three batches with 10^-7 M F2N12S and three batches with 10^-6 M F2N12S. The batches were incubated for 0.5 hour, 1 hour and 4 hours, respectively. The 488 nm line of an argon laser was used as the excitation light source. Emission was collected by using the 630FD22 filter.\nNext, the cytotoxicity of the newly synthesized probe, F2N12S, was evaluated on the human lymphoid cell line CEM T. F2N12S was added at 0.1 μM (working concentration) and 1 μM and, incubated for different times (0.5, 1 and 4 hours)."}, "3T3 fibroblasts": {"system": "3T3 fibroblasts", "experiment": "Flow cytometry F2N12S intensity ratio in 3T3 fibroblasts", "format": "cell-based", "settings": "data not shown", "excerpt": "The probe of the invention F2N12S has been combined with PI and the fluorescence intensities of PI have been represented as a function of the T*/N* ratio of F2N12S (FIG. 6c). In this case, the populations of apoptotic and dead cells are clearly discriminated by using the differences in the PI intensities. […] This conclusion was further strengthened when the populations discriminated by the F2N12S/PI couple were colored according to their response with the annexin V-FITC/PI couple (FIG. 6d)."}, "CEM T cells": {"system": "CEM T cells", "experiment": "Two-color confocal ratiometric imaging of normal and apoptotic cells", "format": "cell-based, human", "experimental": "FIG. 5: Confocal fluorescence ratiometric images of CEM cells stained with F2N12S: normal cells (a); apoptotic cells, obtained by FITC-annexin based sorting of cells treated with actinomycin (b); and actinomycin-treated without cell sorting (c). The images were recorded after a 10 min incubation of the probe with the cells. Scale bar, 10 μm.\nHuman lymphoid CEM T cells were cultured in X-vivo 15 medium (Cambrex, France) at 37° C. in humidified 5% CO2 atmosphere. Cell viability was checked by trypan blue exclusion. Cells were seeded at 5×10^5 cells/ml in the presence or absence of actinomycin D (0.5 μg/ml) for 18 h. Cells were pelleted by centrifugation at 1500 rpm for 5 min and resuspended at 1×10^6 cells/ml in X-vivo 15 medium for experiments.\nThe cells were washed twice by HBSS before each experiment to eliminate fetal bovine serum. In sorting experiments, cells were resuspended in the binding buffer and labeled with the annexin V-FITC kit. For fluorescence measurements with the probe of the invention F2N12S (fluorometry, flow cytometry and confocal microscopy), cells were resuspended in HBSS with 0.1 μM F2N12S. Then, the cell suspension was placed in a shaker bath for 10 min in the incubator. The staining pattern of the cells was checked with a Confocal Imaging System MRC-1024 (BioRad) to ascertain that fluorescence originates from the plasma membrane.\nas §1\nTwo-color confocal fluorescence microscopy of CEM T cells stained with F2N12S was performed. Emission light was collected in two spectral regions: at 470-500 nm to monitor the emission of the N* band and above 585 nm to collect the emission of the T* band. Ratiometric images were obtained by dividing the intensity of the T* band by the intensity of the N* band and were used to monitor the cell plasma membrane changes induced by addition of actinomycin D (FIG. 5, a-c)."}, "[2]": {"settings": "actinomycin D-treated cells not sorted by cytometry"}},
  "data": [
    {"substance": "1-dodecanaminium, N-[[2-[4-Diethylaminophenyl]-3-hydroxychromon-6-yl]-methyl]-N-methyl-N-(3-sulfopropyl)-, inner salt [F2N12S]", "values": [
      {"measurement": "time-dependent change of the fluorescence images", "setting": "T lymphocytes; actinomycin D-treated cells, images recorded during 20 min", "result": "relatively fast change in the emission color"},
      {"measurement": "which cells are stained in fluorescence images", "setting": "T lymphocytes; normal and actinomycin D-treated cells", "result": "stains both normal (FIG. 9b) and apoptotic cells (FIG. 9c) but in different colors"},
      {"measurement": "percentage of dead cells", "setting": "[1]", "result": "≤ 4", "unit": "%"},
      {"measurement": "F2N12S intensity ratio values compared with T lymphoblastoid cells", "setting": "3T3 fibroblasts", "result": "very similar"},
      {"measurement": "fluorescence intensity ratio T*/N*, apoptotic cells", "setting": "CEM T cells; [2]", "result": "~0.25"},
      {"measurement": "fluorescence intensity ratio T*/N*, living cells", "setting": "CEM T cells; [2]", "result": "~1"},
      {"measurement": "fluorescence intensity ratio T*/N* at the plasma membrane", "setting": "CEM T cells; apoptotic cells obtained by cell sorting, average", "result": "around 0.25"},
      {"measurement": "change in the T*/N* ratio, non-treated versus apoptotic cells", "setting": "CEM T cells; confocal imaging", "result": 4, "unit": "fold"},
      {"measurement": "fluorescence intensity ratio T*/N* at the plasma membrane", "setting": "CEM T cells; non-treated cells, N* 470-500 nm, T* above 585 nm", "result": "~1"}
    ]}
  ]
}
